Results: PubChem BioAssay (NCI)
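A five-concentration, 48-hour dose response in 96-well plates underlies each endpoint, interpolated linearly between surrounding concentrations. At the TGI there is no net growth.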 Where a SMILES comes first, the peptide text is derived from it. [ ]: non-standard residue; d: D form. ΔPro = O=C(O)[CH]1C=CCN1

Legend:
Assay in all cases: NCI tumour cell line growth inhibition, 48 h
[1] = system: CCRF-CEM leukemia
[2] = system: HCT-15 colon
[3] = system: NCI-H226 lung
[4] = system: A549 NSCLC
[5] = system: SK-MEL-2 melanoma
[6] = system: T-47D breast

Compound	TGI [1]	TGI [2]	TGI [3]	TGI [4]	TGI [5]	TGI [6]
CCCCCCCCOC(=O)C12Oc3ccc(-c4ccc5c(c4O)C(O)=C4C(=O)CC(C)C(O)C4(C(=O)OCCCCCCCC)O5)c(O)c3C(O)=C1C(=O)CC(C)C2O (centres undefined)	17.9 µM	> 100 µM	> 100 µM	> 100 µM	47.4 µM	> 100 µM
CSC1=NN(C(C)=O)C(C(OC(C)=O)C(OC(C)=O)C(OC(C)=O)C(COC(C)=O)OC(C)=O)S1 (centres undefined)	> 100 µM	> 100 µM	> 100 µM	> 100 µM	> 100 µM	> 100 µM
CNc1cc([N+](=O)[O-])ccc1C(=O)N1CCC[C@H]1CO	–	> 100 µM	> 100 µM	> 100 µM	> 100 µM	> 100 µM
[N-]=[N+]=NC1C(O)C(CO)OC1n1ccc(N)nc1=O (centres undefined)	–	> 625 µM	> 625 µM	> 625 µM	> 585 µM	> 189 µM
C/C(=C\COP(=O)(O)OP(=O)(O)O)CCCCCCOCc1ccccc1	> 100 µM	> 100 µM	> 100 µM	> 100 µM	–	> 100 µM
Clc1cccc(-c2nc3cccc4c3n2Cc2ncccc2-4)c1	> 100 µM	> 100 µM	> 100 µM	> 100 µM	–	> 100 µM
COC(=O)c1cc(CC2Cc3cc4c(cc3C2=O)CCC4)cc2c1CCC2 (centres undefined)	> 100 µM	> 100 µM	> 100 µM	> 100 µM	> 100 µM	> 100 µM
S=C1NC2=C(CSC/C2=C\c2ccc(Cl)cc2)C(c2ccc(Cl)cc2)N1 (centres undefined)	70.9 µM	> 100 µM	–	> 100 µM	> 100 µM	> 100 µM
CSc1c(C#N)c(=O)n(N)c2c1c(C)nn2-c1ccccc1	76.3 µM	85.4 µM	70 µM	61.6 µM	63.3 µM	81 µM
C=C(Cl)/C(=C\Cl)CCC(Cl)C(C)C (centres undefined) (tested in a mixture with another compound)	> 100 µM	–	47.9 µM	> 100 µM	27.1 µM	–
COc1cc(S(=O)(=O)Nc2ccc(-c3csc(N4C(=O)C(C)SC4c4cccs4)n3)cc2)ccc1Cl (centres undefined)	52.2 µM	> 100 µM	> 100 µM	–	22.8 µM	27.3 µM
C[N+](C)(C)CC(=O)N/N=C(\Cc1nc2ccc([N+](=O)[O-])cc2[nH]c1=O)C(=O)Nc1nc2ccc([N+](=O)[O-])cc2s1	> 100 µM	> 100 µM	> 100 µM	> 100 µM	> 100 µM	> 100 µM
COc1ccc(-c2sc(Br)c3c2C(=O)C2OC(=O)NC32)cc1OC (centres undefined)	> 100 µM	> 100 µM	> 100 µM	> 100 µM	> 100 µM	> 100 µM
C=C(C)[C@H]1CC[C@@]23O[C@@H]2[C@@H](C[C@@]2(C)CC(=O)[C@H](CC(=O)C1)O2)OC(=O)[C@@]12CC[C@H](C(=C)C)CC(=O)C[C@H]4O[C@](C)(CC4=O)C[C@@H](OC3=O)[C@@H]1O2	> 100 µM	> 100 µM	> 100 µM	> 100 µM	> 100 µM	> 100 µM
NS(=O)(=O)c1nnc(NS(=O)(=O)c2ccccc2[N+](=O)[O-])s1	–	> 100 µM	> 100 µM	> 100 µM	> 100 µM	> 100 µM
N#Cc1c(Cl)cc(C#N)n2c1nc1ccccc12	–	21.2 µM	71 µM	22.2 µM	33 µM	11.1 µM
CC(O)CNC(=O)Nc1c(C(F)(F)F)cc(-c2ccccc2)[nH]c1=O (centres undefined)	> 100 µM	> 100 µM	> 100 µM	> 100 µM	> 100 µM	> 100 µM
CC1(c2ccccc2)O[C@@H]2C[C@H]3[C@@H]4CCC5=CC(=O)C=C[C@]5(C)[C@@]4(F)[C@@H](O)C[C@]3(C)[C@]2(C(=O)CO)O1 (some centres undefined)	–	36 µM	31 µM	29.2 µM	28.3 µM	41 µM
CN1CCN(c2cc3nc(-c4ccc(Cl)cc4)[nH]c3cc2F)CC1	82.8 µM	17.9 µM	33.9 µM	> 59 µM	34.5 µM	65.7 µM
O=C(O)C1C=CCN1C(=O)C1C=CCN1C(=O)C1C=CCN1 (centres undefined) (H-[ΔPro]-[ΔPro]-[ΔPro]-OH; configuration not given here)	> 100 µM	> 100 µM	> 100 µM	> 100 µM	> 100 µM	> 100 µM
c1ccc2sc(SSSc3nc4ccccc4s3)nc2c1	> 100 µM	> 100 µM	> 100 µM	> 100 µM	> 100 µM	> 100 µM
COC(=O)/C=C/CCC#Cc1ccccc1C#CCC/C=C/C(=O)OC	24.3 µM	> 100 µM	> 100 µM	> 100 µM	–	97.9 µM
Cc1cc(N2CCOCC2)nc2ccc(Cc3ccc4nc(N5CCOCC5)cc(C)c4c3)cc12	–	> 100 µM	> 100 µM	> 100 µM	> 100 µM	52.2 µM
O=c1[nH]c2c(c(=O)[nH]1)SC(c1ccccc1)C2 (centres undefined)	> 100 µM	> 100 µM	> 100 µM	> 100 µM	> 100 µM	–
C=C(COCO)C(C)=O	9.64 µM	39.6 µM	> 100 µM	> 64.7 µM	40.5 µM	36.7 µM
CCOC(=O)C1=C(C)N(c2ccc(Cl)cc2)C2(O)C=CC(=O)C3=C(O)c4ccccc4C(=O)C312 (centres undefined)	6.69 µM	14 µM	–	21.8 µM	16.2 µM	15.8 µM
O=S1SC(=S)C2C=CC=NC21 (centres undefined)	> 100 µM	49.2 µM	56.4 µM	60.5 µM	36.6 µM	58.9 µM
Cc1ccc(N2C(=O)C3c4[nH]c5ccc(C)cc5c4C4CCC(C(C)(C)C)CC4C3C2=O)cc1 (centres undefined)	26.7 µM	> 100 µM	48.7 µM	32.8 µM	99.5 µM	25.9 µM
Cc1ccc(Sc2ccccc2C23OC(C)(C4C(=O)N(c5ccccc5)C(=O)C42)N(C)C3=O)cc1 (centres undefined)	> 100 µM	> 100 µM	> 100 µM	> 100 µM	> 100 µM	> 100 µM
CCOC(=O)CN1C(=O)NC(C)(c2ccccc2)C1=O (centres undefined)	> 100 µM	> 100 µM	–	> 100 µM	> 100 µM	> 100 µM
